Each structure is given as a SMILES string.

In general, IC50 refers to the point on the concentration scale where inhibition reaches its midpoint. A high value points to a need for much substance.

This assay addresses T1, full length human TPH1 (Homo sapiens, UniProt P17752).
T1 construct: To generate the enzyme, full length human TPH1 is cloned into the plasmid pET20b(+); made in house; host or cells: E. coli
T1 sequence (P17752 1-444): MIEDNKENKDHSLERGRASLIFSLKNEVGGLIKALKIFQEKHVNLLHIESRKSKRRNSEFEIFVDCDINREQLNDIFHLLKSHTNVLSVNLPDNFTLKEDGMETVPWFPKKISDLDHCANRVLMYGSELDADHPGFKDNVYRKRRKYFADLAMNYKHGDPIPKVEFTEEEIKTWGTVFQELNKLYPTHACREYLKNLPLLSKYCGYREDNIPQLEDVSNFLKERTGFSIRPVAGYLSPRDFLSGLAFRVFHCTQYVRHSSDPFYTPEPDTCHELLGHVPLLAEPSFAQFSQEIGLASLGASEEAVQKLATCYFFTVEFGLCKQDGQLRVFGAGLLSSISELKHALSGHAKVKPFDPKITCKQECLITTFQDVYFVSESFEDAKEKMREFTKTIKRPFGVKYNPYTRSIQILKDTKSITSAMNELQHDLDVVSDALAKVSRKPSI
Put plainly: Biochemical in vitro assay using fluorescence readout (TPH1 enzyme activity). Particulars: Table 1, mean where determined several times. Summed up:
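E. coli-expressed full-length human TPH1 (40-80 nM), affinity- and size-exclusion-purified, incubated 60 min at 15° C. in 0.1M Tris-HCl pH 7.6 with 1 mM DTT, 0.2 mg/ml catalase, 100 μM 6-methyltetrahydropterine and 40 μM L-tryptophan. 5-Hydroxy-L-tryptophan read by fluorescence (ex 300/em 540 nm) after HClO4 quench; IC50 versus vehicle, mean where repeated.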
`CC(C)(O)c1ccc(C2c3c(nc4n3CCCC4)CCN2C(=O)COc2ccc(C(=O)NC3CC3)nc2Cl)c(F)c1` (stereo not drawn) [Example 1.24.1, 6-chloro-N-cyclopropyl-5-(2-(1-(2-fluoro-4-(2-hydroxypropan-2-yl)phenyl)-3,4,6,7,8,9-hexahydroimidazo[1,2-a:5,4-c′]dipyridin-2(1H)-yl)-2-oxoethoxy)picolinamide] displayed an IC50 of 0.068 µM.

For the molecule `CC(C)(O)c1ccc(C2c3c(nc4n3CCCC4)CCN2C(=O)COc2ccc(NS(C)(=O)=O)nc2Cl)c(F)c1` (stereo not drawn) [Example 1.24.2, N-(6-chloro-5-(2-(1-(2-fluoro-4-(2-hydroxypropan-2-yl)phenyl)-3,4,6,7,8,9-hexahydroimidazo[1,2-a:5,4-c′]dipyridin-2(1H)-yl)-2-oxoethoxy)pyridin-2-yl)methanesulfonamide], the half-maximal inhibitory concentration (IC50) is 0.131 µM. The molecule `COC(C)(C)c1ccc(C2c3c(nc4n3CCCC4)CCN2C(=O)COc2ccc(C(=O)NC3CC3)nc2Cl)c(F)c1` (stereo not drawn) [Example 1.25.1, 6-chloro-N-cyclopropyl-5-(2-(1-(2-fluoro-4-(2-methoxypropan-2-yl)phenyl)-3,4,6,7,8,9-hexahydroimidazo[1,2-a:5,4-c′]dipyridin-2(1H)-yl)-2-oxoethoxy)picolinamide] came in with a 50% inhibitory concentration (IC50) of 0.068 µM. The same measure for `COC(C)(C)c1ccc(C2c3c(nc4n3CCCC4)CCN2C(=O)COc2ccc(NS(C)(=O)=O)nc2Cl)c(F)c1` (stereo not drawn) [Example 1.25.2, N-(6-chloro-5-(2-(1-(2-fluoro-4-(2-methoxypropan-2-yl)phenyl)-3,4,6,7,8,9-hexahydroimidazo[1,2-a:5,4-c′]dipyridin-2(1H)-yl)-2-oxoethoxy)pyridin-2-yl)methanesulfonamide]: 0.303 µM; for `COCc1ccc(C2c3c(nc4n3CCCC4)CCN2C(=O)COc2ccc(C(=O)NC3CC3)nc2Cl)c(F)c1` (stereo not drawn) [Example 1.26.1, 6-chloro-N-cyclopropyl-5-(2-(1-(2-fluoro-4-(methoxymethyl)phenyl)-3,4,6,7,8,9-hexahydroimidazo[1,2-a:5,4-c′]dipyridin-2(1H)-yl)-2-oxoethoxy)picolinamide]: 0.019 µM. Regarding `COCc1ccc(C2c3c(nc4n3CCCC4)CCN2C(=O)COc2ccc(NS(C)(=O)=O)nc2Cl)c(F)c1` (stereo not drawn) [Example 1.26.2, N-(6-chloro-5-(2-(1-(2-fluoro-4-(methoxymethyl)phenyl)-3,4,6,7,8,9-hexahydroimidazo[1,2-a:5,4-c′]dipyridin-2(1H)-yl)-2-oxoethoxy)pyridin-2-yl)methanesulfonamide], the half-maximal inhibitory concentration (IC50) turned out to be 0.025 µM.

`COCCOc1ccc(C2c3c(nc4n3CCCC4)CCN2C(=O)COc2ccc(C(=O)NC3CC3)nc2Cl)c(F)c1` (stereo not drawn) [Example 1.27.1, 6-chloro-N-cyclopropyl-5-(2-(1-(2-fluoro-4-(2-methoxyethoxy)phenyl)-3,4,6,7,8,9-hexahydroimidazo[1,2-a:5,4-c′]dipyridin-2(1H)-yl)-2-oxoethoxy)picolinamide] had an IC50 of 0.06 µM.

In the case of `COCCOc1ccc(C2c3c(nc4n3CCCC4)CCN2C(=O)COc2ccc(NS(C)(=O)=O)nc2Cl)c(F)c1` (stereo not drawn) [Example 1.27.2, N-(6-chloro-5-(2-(1-(2-fluoro-4-(2-methoxyethoxy)phenyl)-3,4,6,7,8,9-hexahydroimidazo[1,2-a:5,4-c′]dipyridin-2(1H)-yl)-2-oxoethoxy)pyridin-2-yl)methanesulfonamide], the half-maximal inhibitory concentration (IC50) was 0.034 µM. Compared with the last molecule, the IC50 is about 1.8-fold lower. The value for `O=C(NC1CC1)c1ccc(OCC(=O)N2CCc3nc4n(c3C2c2ccc(OCCO)cc2F)CCCC4)c(Cl)n1` (stereo not drawn) [Example 1.28.1, 6-chloro-N-cyclopropyl-5-(2-(1-(2-fluoro-4-(2-hydroxyethoxy)phenyl)-3,4,6,7,8,9-hexahydroimidazo[1,2-a:5,4-c′]dipyridin-2(1H)-yl)-2-oxoethoxy)picolinamide] was 0.054 µM. The same measure for `CS(=O)(=O)Nc1ccc(OCC(=O)N2CCc3nc4n(c3C2c2ccc(OCCO)cc2F)CCCC4)c(Cl)n1` (stereo not drawn) [Example 1.28.2, N-(6-chloro-5-(2-(1-(2-fluoro-4-(2-hydroxyethoxy)phenyl)-3,4,6,7,8,9-hexahydroimidazo[1,2-a:5,4-c′]dipyridin-2(1H)-yl)-2-oxoethoxy)pyridin-2-yl)methanesulfonamide]: 0.021 µM; for `CS(=O)(=O)Nc1ccc(OCC(=O)N2CCc3nc4n(c3C2c2ccc(Cl)cc2F)CCC4)c(Cl)n1` (stereo not drawn) [Example 2.1.1, N-(6-chloro-5-(2-(1-(4-chloro-2-fluorophenyl)-3,4,7,8-tetrahydro-1H-pyrrolo[2′,1′:2,3]imidazo[4,5-c]pyridin-2(6H)-yl)-2-oxoethoxy)pyridin-2-yl)methanesulfonamide]: 0.013 µM. The value for `CCc1nc(NS(C)(=O)=O)ccc1OCC(=O)N1CCc2nc3n(c2C1c1ccc(Cl)cc1F)CCC3` (stereo not drawn) [Example 2.1.2, N-(5-(2-(1-(4-chloro-2-fluorophenyl)-3,4,7,8-tetrahydro-1H-pyrrolo[2′,1′:2,3]imidazo[4,5-c]pyridin-2(6H)-yl)-2-oxoethoxy)-6-ethylpyridin-2-yl)methanesulfonamide] was 0.013 µM; that for `CCc1nc(N2CCCS2(=O)=O)ccc1OCC(=O)N1CCc2nc3n(c2C1c1ccc(Cl)cc1F)CCC3` (stereo not drawn) [Example 2.1.3, 1-(1-(4-chloro-2-fluorophenyl)-3,4,7,8-tetrahydro-1H-pyrrolo[2′,1′:2,3]imidazo[4,5-c]pyridin-2(6H)-yl)-2-((6-(1,1-dioxidoisothiazolidin-2-yl)-2-ethylpyridin-3-yl)oxy)ethanone] was 0.008 µM; that for `Cc1ccc(C2c3c(nc4n3CCC4)CCN2C(=O)COc2ccc(NS(C)(=O)=O)nc2Cl)c(F)c1` (stereo not drawn) [Example 2.2.1, N-(6-chloro-5-(2-(1-(2-fluoro-4-methylphenyl)-3,4,7,8-tetrahydro-1H-pyrrolo[2′,1′:2,3]imidazo[4,5-c]pyridin-2(6H)-yl)-2-oxoethoxy)pyridin-2-yl)methanesulfonamide] was 0.015 µM.

For `CCc1nc(NS(C)(=O)=O)ccc1OCC(=O)N1CCc2nc3n(c2C1c1ccc(C)c(F)c1F)CCC3` (stereo not drawn) [Example 2.3.1, N-(5-(2-(1-(2,3-difluoro-4-methylphenyl)-3,4,7,8-tetrahydro-1H-pyrrolo[2′,1′:2,3]imidazo[4,5-c]pyridin-2(6H)-yl)-2-oxoethoxy)-6-ethylpyridin-2-yl)methanesulfonamide], half-maximal inhibition (IC50) was put at 0.008 µM. On to `CCc1nc(N2CCCS2(=O)=O)ccc1OCC(=O)N1CCc2nc3n(c2C1c1sc(C)nc1C)CCC3` (stereo not drawn) [Example 2.4.1, 1-(1-(2,4-dimethylthiazol-5-yl)-3,4,7,8-tetrahydro-1H-pyrrolo[2′,1′:2,3]imidazo[4,5-c]pyridin-2(6H)-yl)-2-((6-(1,1-dioxidoisothiazolidin-2-yl)-2-ethylpyridin-3-yl)oxy)ethanone], for which the half-inhibitory concentration (IC50) stood at 0.008 µM.

`CCc1nc(NS(C)(=O)=O)ccc1OCC(=O)N1CCc2nc3n(c2[C@@H]1c1sc(C)nc1C)CCC3` [Example 2.4.2, (R)-N-(5-(2-(1-(2,4-dimethylthiazol-5-yl)-3,4,7,8-tetrahydro-1H-pyrrolo[2′,1′:2,3]imidazo[4,5-c]pyridin-2(6H)-yl)-2-oxoethoxy)-6-ethylpyridin-2-yl)methanesulfonamide] registered an IC50 of 0.007 µM. Regarding `CCc1nc(C(=O)NC2CC2)ccc1OCC(=O)N1CCc2nc3n(c2[C@@H]1c1sc(C)nc1C)CCC3` [Example 2.4.3, (R)-N-cyclopropyl-5-(2-(1-(2,4-dimethylthiazol-5-yl)-3,4,7,8-tetrahydro-1H-pyrrolo[2′,1′:2,3]imidazo[4,5-c]pyridin-2(6H)-yl)-2-oxoethoxy)-6-ethylpicolinamide], inhibition was half-maximal at 0.009 µM (IC50).

The record behind these values is US10189839B2, “Tricyclic imidazole compounds as inhibitors of tryptophan hydroxylase” (ACTELION PHARMACEUTICALS LTD, priority 2013, dated 2019).
